Assay results taken from paper PMC5218480 (PLoS ONE, 2017).

Test system: MV-4-11 cells
Assay: Gene expression microarray analysis (Affymetrix PrimeView) and GSEA
Assay type: cell-based, human
Parameters: RFU PODN (11730768_x_at) / Fold change /veh PODN (11730768_x_at) / RFU LINC00158 (11744669_a_at) / Fold change /veh LINC00158 (11744669_a_at) / RFU DUSP10 (11751237_a_at) / Fold change /veh DUSP10 (11751237_a_at) / RFU ID3 (11757404_x_at) / Fold change /veh ID3 (11757404_x_at) / RFU PLEKHG5 (11737974_s_at) / Fold change /veh PLEKHG5 (11737974_s_at) / RFU LRRC4B (11730491_at) / Fold change /veh LRRC4B (11730491_at) / RFU GIMAP4 (11747438_a_at) / Fold change /veh GIMAP4 (11747438_a_at) / RFU KRT8 (11758183_x_at) / Fold change /veh KRT8 (11758183_x_at) / RFU CNN1 (11734310_a_at) / Fold change /veh CNN1 (11734310_a_at) / RFU VPS37D (11726825_at) / Fold change /veh VPS37D (11726825_at) / RFU C10orf10 (11716522_x_at) / Fold change /veh C10orf10 (11716522_x_at) / RFU KIR2DL2 /// KIR2DL4 /// KIR2DL5A /// KIR2DL5B /// KIR2DS1 /// KIR2DS2 /// KIR2DS3 /// KIR2DS4 /// KIR3DL3 /// KIR3DL3 /// KIR3DS1 (11738374_at) / Fold change /veh KIR2DL2 /// KIR2DL4 /// KIR2DL5A /// KIR2DL5B /// KIR2DS1 /// KIR2DS2 /// KIR2DS3 /// KIR2DS4 /// KIR3DL3 /// KIR3DL3 /// KIR3DS1 (11738374_at) / RFU C1QL1 (11718748_at) / Fold change /veh C1QL1 (11718748_at) / RFU TMPRSS4 (11747572_a_at) / Fold change /veh TMPRSS4 (11747572_a_at) / RFU HAMP (11756126_x_at) / Fold change /veh HAMP (11756126_x_at) / RFU RNFT2 (11725882_a_at) / Fold change /veh RNFT2 (11725882_a_at) / RFU NR4A2 (11747474_a_at) / Fold change /veh NR4A2 (11747474_a_at) / RFU ABCC12 (11746883_a_at) / Fold change /veh ABCC12 (11746883_a_at) / RFU TMEM136 (11760407_x_at) / Fold change /veh TMEM136 (11760407_x_at) / RFU CLDN22 /// WWC2 (11732394_at) / Fold change /veh CLDN22 /// WWC2 (11732394_at) / RFU HLA-DPB1 (11760878_x_at) / Fold change /veh HLA-DPB1 (11760878_x_at) / RFU SPINT1 (11716480_a_at) / Fold change /veh SPINT1 (11716480_a_at) / RFU GAP43 (11754022_s_at) / Fold change /veh GAP43 (11754022_s_at) / RFU A4GNT (11735810_at) / Fold change /veh A4GNT (11735810_at) / RFU PRB3 (11715151_x_at) / Fold change /veh PRB3 (11715151_x_at) / RFU TUBB4B (11761932_at) / Fold change /veh TUBB4B (11761932_at) / RFU CAPN14 (11732068_a_at) / Fold change /veh CAPN14 (11732068_a_at) / RFU TMCC2 (11721928_a_at) / Fold change /veh TMCC2 (11721928_a_at) / RFU IRGQ (11745062_a_at) / Fold change /veh IRGQ (11745062_a_at) / RFU FAM174B (11720279_a_at) / Fold change /veh FAM174B (11720279_a_at) / RFU TMPRSS4 (11748680_a_at) / Fold change /veh TMPRSS4 (11748680_a_at) / RFU FAM212B (11763350_a_at) / Fold change /veh FAM212B (11763350_a_at) / RFU PLEKHG5 (11743358_a_at) / Fold change /veh PLEKHG5 (11743358_a_at) / RFU ZSCAN30 (11745921_a_at) / Fold change /veh ZSCAN30 (11745921_a_at) / RFU CMKLR1 (11741424_a_at) / Fold change /veh CMKLR1 (11741424_a_at) / RFU LOC101060620 /// MAPK8IP1 (11723275_at) / Fold change /veh LOC101060620 /// MAPK8IP1 (11723275_at) / RFU SPTSSB (11747773_x_at) / Fold change /veh SPTSSB (11747773_x_at) / RFU PRSS12 (11739890_at) / Fold change /veh PRSS12 (11739890_at) / RFU BIN1 (11741810_x_at) / Fold change /veh BIN1 (11741810_x_at) / RFU WNT11 (11732464_a_at) / Fold change /veh WNT11 (11732464_a_at) / RFU C10orf10 (11716521_a_at) / Fold change /veh C10orf10 (11716521_a_at) / RFU C5orf56 (11738089_at) / Fold change /veh C5orf56 (11738089_at) / RFU CYB561 (11721691_x_at) / Fold change /veh CYB561 (11721691_x_at) / RFU ANKRD19P (11752326_a_at) / Fold change /veh ANKRD19P (11752326_a_at) / RFU OR2T12 /// OR2T33 /// OR2T8 (11738714_s_at) / Fold change /veh OR2T12 /// OR2T33 /// OR2T8 (11738714_s_at) / RFU VCAN (11748164_a_at) / Fold change /veh VCAN (11748164_a_at) / RFU JSRP1 (11732532_at) / Fold change /veh JSRP1 (11732532_at) / RFU KRTAP10-11 (11738290_x_at) / Fold change /veh KRTAP10-11 (11738290_x_at) / RFU MYO3A (11730013_a_at) / Fold change /veh MYO3A (11730013_a_at) / RFU EBF3 (11725865_a_at) / Fold change /veh EBF3 (11725865_a_at) / RFU CAMK2N1 (11719241_x_at) / Fold change /veh CAMK2N1 (11719241_x_at) / RFU C5orf56 (11738088_a_at) / Fold change /veh C5orf56 (11738088_a_at) / RFU OLFML3 (11715873_a_at) / Fold change /veh OLFML3 (11715873_a_at) / RFU LOC100653217 /// NTM (11731650_a_at) / Fold change /veh LOC100653217 /// NTM (11731650_a_at) / RFU MAPK11 (11762145_a_at) / Fold change /veh MAPK11 (11762145_a_at) / RFU FIZ1 (11724087_x_at) / Fold change /veh FIZ1 (11724087_x_at) / RFU OASL (11726364_x_at) / Fold change /veh OASL (11726364_x_at) / RFU SOX15 (11748057_x_at) / Fold change /veh SOX15 (11748057_x_at) / RFU CD79A (11719716_a_at) / Fold change /veh CD79A (11719716_a_at) / RFU HIST1H1D (11736915_at) / Fold change /veh HIST1H1D (11736915_at) / RFU CASKIN2 (11723855_a_at) / Fold change /veh CASKIN2 (11723855_a_at) / RFU LOC730098 (11760151_x_at) / Fold change /veh LOC730098 (11760151_x_at) / RFU OR4N2 (11742367_at) / Fold change /veh OR4N2 (11742367_at) / RFU PRRT2 (11749266_a_at) / Fold change /veh PRRT2 (11749266_a_at) / RFU SNX32 (11753110_a_at) / Fold change /veh SNX32 (11753110_a_at) / RFU CDHR5 (11726645_a_at) / Fold change /veh CDHR5 (11726645_a_at) / RFU RCAN1 (11760418_a_at) / Fold change /veh RCAN1 (11760418_a_at) / RFU FAM167A (11723789_a_at) / Fold change /veh FAM167A (11723789_a_at) / RFU FAM26E (11764081_at) / Fold change /veh FAM26E (11764081_at) / RFU ISYNA1 (11749810_s_at) / Fold change /veh ISYNA1 (11749810_s_at) / RFU ACY1 (11761880_at) / Fold change /veh ACY1 (11761880_at) / RFU 11764098_at / Fold change /veh 11764098_at / RFU SAMD14 (11745864_x_at) / Fold change /veh SAMD14 (11745864_x_at) / RFU NPB (11741838_a_at) / Fold change /veh NPB (11741838_a_at) / RFU TMPRSS6 (11731388_a_at) / Fold change /veh TMPRSS6 (11731388_a_at) / RFU KRTAP10-2 (11738614_at) / Fold change /veh KRTAP10-2 (11738614_at) / RFU ARHGAP8 /// PRR5-ARHGAP8 (11727945_x_at) / Fold change /veh ARHGAP8 /// PRR5-ARHGAP8 (11727945_x_at) / RFU KRTAP5-7 /// NADSYN1 (11734609_at) / Fold change /veh KRTAP5-7 /// NADSYN1 (11734609_at) / RFU RASL12 (11751679_a_at) / Fold change /veh RASL12 (11751679_a_at) / RFU CDKN2B (11736163_a_at) / Fold change /veh CDKN2B (11736163_a_at) / RFU PRF1 (11729649_at) / Fold change /veh PRF1 (11729649_at) / RFU, ZNF638 /// ZNF638-IT1 / Fold change vs veh, ZNF638 /// ZNF638-IT1 / RFU, PANK3 / Fold change vs veh, PANK3 / RFU, SH3YL1 / Fold change vs veh, SH3YL1 / RFU, ZEB2 / Fold change vs veh, ZEB2 / RFU, NRIP1 / Fold change vs veh, NRIP1 / RFU, PTTG1IP / Fold change vs veh, PTTG1IP / RFU, CAPN2 / Fold change vs veh, CAPN2 / RFU, MED14 / Fold change vs veh, MED14 / RFU, SNORA58 / Fold change vs veh, SNORA58 / RFU, C1orf63 / Fold change vs veh, C1orf63 / RFU, LRRFIP1 / Fold change vs veh, LRRFIP1 / RFU, NDUFAF7 / Fold change vs veh, NDUFAF7 / RFU, SLC12A2 / Fold change vs veh, SLC12A2 / RFU, IBTK / Fold change vs veh, IBTK / RFU, ESF1 / Fold change vs veh, ESF1 / Fold change vs veh, TMEM50B / RFU, TAOK1 / Fold change vs veh, TAOK1 / RFU, ACBD3 / Fold change vs veh, ACBD3 / RFU, TMA16 / Fold change vs veh, TMA16 / RFU, RWDD3 / Fold change vs veh, RWDD3 / RFU, BCAT1 / Fold change vs veh, BCAT1 / RFU, EDEM3 / Fold change vs veh, EDEM3 / RFU, TMEM33 / Fold change vs veh, TMEM33 / RFU, WDR75 / Fold change vs veh, WDR75 / RFU, AHCTF1 / Fold change vs veh, AHCTF1 / RFU, TFRC / Fold change vs veh, TFRC / RFU, ZDHHC17 / Fold change vs veh, ZDHHC17 / RFU, NOM1 / Fold change vs veh, NOM1 / RFU, ARL8B / Fold change vs veh, ARL8B / RFU, ZBTB11 / Fold change vs veh, ZBTB11 / RFU, TAMM41 / Fold change vs veh, TAMM41 / RFU, KIAA1704 /// LOC100996395 / Fold change vs veh, KIAA1704 /// LOC100996395 / RFU, ING1 / Fold change vs veh, ING1 / RFU, TRMT61B / Fold change vs veh, TRMT61B / RFU, FUBP3 / Fold change vs veh, FUBP3 / RFU, TP53 / Fold change vs veh, TP53 / RFU, TNKS2 / Fold change vs veh, TNKS2 / RFU, ZFP14 / Fold change vs veh, ZFP14 / RFU, ACTR2 / Fold change vs veh, ACTR2 / RFU, PPP3R1 / Fold change vs veh, PPP3R1 / RFU, PIK3R1 / Fold change vs veh, PIK3R1 / RFU, HNRNPA1 / Fold change vs veh, HNRNPA1 / RFU, RNF170 / Fold change vs veh, RNF170 / RFU, ZNF28 / Fold change vs veh, ZNF28 / RFU, RNGTT / Fold change vs veh, RNGTT / RFU, OGT / Fold change vs veh, OGT / RFU, BRD1 / Fold change vs veh, BRD1 / RFU, MARS / Fold change vs veh, MARS / RFU, ZNF655 / Fold change vs veh, ZNF655 / RFU, FAHD1 / Fold change vs veh, FAHD1 / RFU, BDP1 / Fold change vs veh, BDP1 / RFU, LRRCC1 / Fold change vs veh, LRRCC1 / RFU, ARID1A / Fold change vs veh, ARID1A / RFU, ZNF146 / Fold change vs veh, ZNF146 / RFU, ZNF330 / Fold change vs veh, ZNF330 / RFU, GPN3 / Fold change vs veh, GPN3 / RFU, C9orf123 / Fold change vs veh, C9orf123 / RFU, N4BP2L2 / Fold change vs veh, N4BP2L2 / RFU, ARFIP1 / Fold change vs veh, ARFIP1 / RFU, FAM179B / Fold change vs veh, FAM179B / RFU, BCL10 / Fold change vs veh, BCL10 / RFU, UHRF1BP1L / Fold change vs veh, UHRF1BP1L / RFU, BET1 / Fold change vs veh, BET1 / RFU, CNOT2 / Fold change vs veh, CNOT2 / RFU, ZNF268 / Fold change vs veh, ZNF268 / Fold change vs veh, ZNF507 / RFU, DGCR2 / Fold change vs veh, DGCR2 / RFU, WDSUB1 / Fold change vs veh, WDSUB1 / Fold change vs veh, HSP90B1 /// MIR3652 / RFU, ADSS / Fold change vs veh, ADSS / RFU, GK / Fold change vs veh, GK / RFU, ZNF148 / Fold change vs veh, ZNF148 / RFU, TAF9 / Fold change vs veh, TAF9 / RFU, SLC1A5 / Fold change vs veh, SLC1A5 / RFU, SLMO2 / Fold change vs veh, SLMO2 / RFU, ABCC4 / Fold change vs veh, ABCC4 / RFU, LOC101060439 /// RAP1B / Fold change vs veh, LOC101060439 /// RAP1B / RFU, RFX7 / Fold change vs veh, RFX7 / RFU, GTPBP10 / Fold change vs veh, GTPBP10 / RFU, CNEP1R1 / Fold change vs veh, CNEP1R1 / RFU, BIVM-ERCC5 /// ERCC5 / Fold change vs veh, BIVM-ERCC5 /// ERCC5 / RFU, ILF3 / Fold change vs veh, ILF3 / RFU 11762660_at / Fold change /veh 11762660_at / RFU VCAN (11757783_s_at) / Fold change /veh VCAN (11757783_s_at) / RFU DDX43 (11728927_at) / Fold change /veh DDX43 (11728927_at) / RFU KRT8 (11758188_x_at) / Fold change /veh KRT8 (11758188_x_at) / RFU NKD1 (11759106_at) / Fold change /veh NKD1 (11759106_at) / RFU SRD5A1 (11742802_a_at) / Fold change /veh SRD5A1 (11742802_a_at) / RFU TPSAB1 /// TPSB2 (11721975_s_at) / Fold change /veh TPSAB1 /// TPSB2 (11721975_s_at) / RFU GSTM3 (11746129_a_at) / Fold change /veh GSTM3 (11746129_a_at) / RFU IL23R (11737362_x_at) / Fold change /veh IL23R (11737362_x_at) / RFU TMEM51 (11727254_a_at) / Fold change /veh TMEM51 (11727254_a_at) / RFU PIWIL2 (11732686_x_at) / Fold change /veh PIWIL2 (11732686_x_at) / RFU ORM1 (11744905_x_at) / Fold change /veh ORM1 (11744905_x_at) / RFU CCDC152 (11743942_at) / Fold change /veh CCDC152 (11743942_at) / RFU ECM1 (11717891_a_at) / Fold change /veh ECM1 (11717891_a_at) / RFU IL23R (11748794_a_at) / Fold change /veh IL23R (11748794_a_at) / RFU TNFAIP8L3 (11732012_x_at) / Fold change /veh TNFAIP8L3 (11732012_x_at) / RFU MBOAT4 (11741988_at) / Fold change /veh MBOAT4 (11741988_at) / RFU 11764193_at / Fold change /veh 11764193_at / RFU TMEM53 (11763286_at) / Fold change /veh TMEM53 (11763286_at) / RFU MAGEB2 (11727129_at) / Fold change /veh MAGEB2 (11727129_at) / RFU TMEM200A (11744735_a_at) / Fold change /veh TMEM200A (11744735_a_at) / RFU CCDC152 (11751479_a_at) / Fold change /veh CCDC152 (11751479_a_at) / RFU FAM211A (11726209_a_at) / Fold change /veh FAM211A (11726209_a_at) / RFU RGS16 (11746705_a_at) / Fold change /veh RGS16 (11746705_a_at) / RFU VCAN (11755009_s_at) / Fold change /veh VCAN (11755009_s_at) / RFU RHOB (11743442_s_at) / Fold change /veh RHOB (11743442_s_at) / RFU RGS16 (11720943_a_at) / Fold change /veh RGS16 (11720943_a_at) / RFU RGS16 (11720944_at) / Fold change /veh RGS16 (11720944_at) / RFU, VPS4B / Fold change vs veh, VPS4B / RFU, CREB1 / Fold change vs veh, CREB1 / RFU, DNAJC13 / Fold change vs veh, DNAJC13 / RFU, GNAQ / Fold change vs veh, GNAQ / RFU, CDK5R1 / Fold change vs veh, CDK5R1 / RFU, ZRANB3 / Fold change vs veh, ZRANB3 / RFU, CUL4A / Fold change vs veh, CUL4A / RFU, CCNY / Fold change vs veh, CCNY / RFU, UFL1 / Fold change vs veh, UFL1 / RFU, COG3 / Fold change vs veh, COG3 / RFU, DIAPH2 / Fold change vs veh, DIAPH2 / RFU, SKA2 / Fold change vs veh, SKA2 / RFU, AFF3 / Fold change vs veh, AFF3 / RFU, LMF1 / Fold change vs veh, LMF1 / RFU, IPO11 / Fold change vs veh, IPO11 / RFU, DFFB / Fold change vs veh, DFFB / RFU, FOXP1 / Fold change vs veh, FOXP1 / RFU, CARD8 / Fold change vs veh, CARD8 / RFU, STRN3 / Fold change vs veh, STRN3 / RFU, ADK / Fold change vs veh, ADK / RFU, RASSF2 / Fold change vs veh, RASSF2 / RFU, WIPF1 / Fold change vs veh, WIPF1 / RFU, LARP1B / Fold change vs veh, LARP1B / RFU, RASA1 / Fold change vs veh, RASA1 / RFU, RB1 / Fold change vs veh, RB1 / RFU, PPFIA1 / Fold change vs veh, PPFIA1 / RFU, MAT2A / Fold change vs veh, MAT2A / RFU, CCT5 / Fold change vs veh, CCT5 / RFU, WDR92 / Fold change vs veh, WDR92 / RFU, CUX1 / Fold change vs veh, CUX1 / RFU, TTC7A / Fold change vs veh, TTC7A / RFU, TMEM135 / Fold change vs veh, TMEM135 / RFU, DEPTOR / Fold change vs veh, DEPTOR / RFU, CPM / Fold change vs veh, CPM / RFU, DNAJB6 / Fold change vs veh, DNAJB6 / RFU, CACNA2D3 / Fold change vs veh, CACNA2D3 / RFU, DTX4 / Fold change vs veh, DTX4 / RFU, TFCP2 / Fold change vs veh, TFCP2 / RFU, GMCL1 /// GMCL1P1 / Fold change vs veh, GMCL1 /// GMCL1P1 / RFU, AEBP2 / Fold change vs veh, AEBP2 / RFU, SNHG1 /// SNORD22 /// SNORD25 /// SNORD26 /// SNORD27 /// SNORD28 /// SNORD29 /// SNORD31 / Fold change vs veh, SNHG1 /// SNORD22 /// SNORD25 /// SNORD26 /// SNORD27 /// SNORD28 /// SNORD29 /// SNORD31 / Fold change (Aza/veh), C12orf56 (ProbeSet 11735607_a_at) / Fold change (ACY-1035/veh), C12orf56 (ProbeSet 11735607_a_at) / Fold change (Aza/veh), FGFR1OP (ProbeSet 11751329_s_at) / Fold change (ACY-1035/veh), FGFR1OP (ProbeSet 11751329_s_at) / Fold change (Aza/veh), VPS36 (ProbeSet 11739960_a_at) / Fold change (ACY-1035/veh), VPS36 (ProbeSet 11739960_a_at) / RFU SYPL1 (11715823_x_at) / Fold change /veh SYPL1 (11715823_x_at) / RFU IGFBP7 (11715501_s_at) / Fold change /veh IGFBP7 (11715501_s_at) / RFU REEP3 (11722064_at) / Fold change /veh REEP3 (11722064_at) / RFU IGLL1 (11728026_x_at) / Fold change /veh IGLL1 (11728026_x_at): dose or concentration left out as unconfirmed
Conditions: MV-4-11 cells, 48 hours

`Nc1ncn([C@@H]2O[C@H](CO)[C@@H](O)[C@H]2O)c(=O)n1` [azacitidine] was tested, and the “RFU LOC730098 (11760151_x_at)” value was 36.57 RFU.
